“Also recorded” adds a separate entry of the source.
Experiment: DPPH radical scavenging activity assay
Assay type: biochemical
Details: for Scavenging Activity (%) (n = 3): DPPH in methanol, 30 min, 517 nm
Description: DPPH Radical Scavenging Activity Assay
2,2-Diphenyl-1-picryl hydrazyl (DPPH) is an organic compound composed of a stable organic radical. In the DPPH molecule, due to the presence of multiple electron-withdrawing —NO2 and large it bonds of the benzene ring, nitrogen free radical is stabilized. Its methanol solution is purple and has a maximum absorption peak at 517 nm. After the addition of an antioxidant, DPPH captures an electron to be paired with the free electron, and the purple fades and turns into a yellow substance. The absorption at 517 nm disappears, and the degree of fading is quantitatively related to the number of electrons it captures. Based on this principle, a spectrophotometer is used to detect the change of the absorbance of the DPPH radical and the sample solution, and the ability of the sample to provide hydrogen atoms and scavenge free radicals can be measured.
(a) Preparation of DPPH solution:measuring exact amount of 2,2-diphenyl-1-picryl hydrazyl (DPPH) and dissolving in methanol to prepare a 0.2×10^−4 mol/L DPPH solution, stored at 0° C. in dark.
(b) Preparation of sample solutions: Vc (vitamin C, positive control), hydroxytyrosol thiodipropionic acid ester, hydroxytyrosol (control), thiodipropionic acid (control), and a mixture of hydroxytyrosol and thiodipropionic acid (control) were dissolved in methanol and diluted in a concentration gradient.
Measuring the scavenging activity of the sample solutions: 2 mL of the sample solutions (table 1) at each concentration gradient was taken, 2 mL 0.2×10^−4 mol/L DPPH solution was added, the mixture was mixed and reacted at room temperature in dark for 30 minutes, and methanol was then added to adjust final volume. The absorbance Ai was measured at 517 nm. 2 mL control solution and 2 mL methanol were mixed, and the absorbance Aj was measured. 2 mL DPPH solution and 2 mL methanol were mixed, and the absorbance A0 was measured.
(d) The scavenging activity of the sample solution and control solutions is calculated according to the following calculation formula and shown in Table 3 and FIG. 3. Scavenging activity (%)=100×[1−(Ai−Aj)/A0]

[1] = sample concentration 1.648 μg/mL, room temperature, dark
[2] = sample concentration 8.242 μg/mL
[3] = sample concentration 16.484 μg/mL
[4] = sample concentration 37.969 μg/mL
[5] = sample concentration 65.938 μg/mL
[6] = sample concentration 131.875 μg/mL
[7] = sample concentration 263.750 μg/mL
[8] = sample concentration 527.500 μg/mL
[9] = sample concentration 1055.000 μg/mL

Row | Compound | Scavenging Activity (%) (n = 3) [1] | Scavenging Activity (%) (n = 3) [2] | Scavenging Activity (%) (n = 3) [3] | Scavenging Activity (%) (n = 3) [4] | Scavenging Activity (%) (n = 3) [5] | Scavenging Activity (%) (n = 3) [6] | Scavenging Activity (%) (n = 3) [7] | Scavenging Activity (%) (n = 3) [8] | Scavenging Activity (%) (n = 3) [9] | DPPH radical scavenging activity (result in words, comparison with controls) (1.648 to 1055 μg/mL, compared at same concentration)
1 | O=C(O)CCSCCC(=O)O [C, 3,3′-thiodipropionic acid] | 3.24 | 4.86 | 9.72 | 16.19 | 20.65 | 27.13 | 31.58 | 32.39 | 38.06 | –
2 | OCCc1ccc(O)c(O)c1 [B, 4-(2-hydroxyethyl)-1,2-benzenediol] | 8.44 | 10.97 | 22.78 | 29.96 | 43.04 | 62.87 | 73.00 | 75.11 | 75.95 | –
3 | O=C1O[C@H]([C@@H](O)CO)C(O)=C1O [Vc, Vitamin C] | 34.01 | 37.06 | 44.67 | 67.51 | 95.43 | 97.46 | 98.98 | 99.49 | 99.49 | –
4 | O=C(CCSCCC(=O)OCCc1ccc(O)c(O)c1)OCCc1ccc(O)c(O)c1 [A, bis(3,4-dihydroxyphenethyl) 3,3′-thiodipropanoate] | 32.44 | 42.37 | 52.29 | 66.79 | 79.39 | 90.01 | 96.95 | 97.71 | 98.09 | obvious DPPH radical scavenging activity in a concentration dependent manner; also recorded: better DPPH radical scavenging activity than hydroxytyrosol (B), thiodipropionic acid (C), and a 2:1 physical mixture of hydroxytyrosol and thiodipropionic acid (D) at same concentration

Source: patent US10343988B1, “Hydroxytyrosol thiodipropionic acid ester with antioxidant activity and a method of preparing the same” (SHAANXI UNIVERSITY OF SCIENCE AND TECHNOLOGY, priority 2019, dated 2019)
